Like-named read-outs stand apart in the source and are kept apart here.
What was measured:
[1] = tested on: human colon cancer (HT-29); assay: MTT cytotoxicity assay, HT-29; type: cell-based; details: HT-29, MTT, 72 h, read-out: Antiproliferative Activity IC50 ± SEM, HT-29
[2] = tested on: pancreatic cancer (PaCa-2); assay: MTT cytotoxicity assay, PaCa-2; type: cell-based; details: PaCa-2, MTT, 72 h; read-out: Antiproliferative Activity IC50 ± SEM, PaCa-2
[3] = tested on: human malignant melanoma (A375); assay: MTT cytotoxicity assay, A375; type: cell-based; details: read-out: Antiproliferative Activity IC50 ± SEM, A375
lung cancer (H-460) = assay: MTT cytotoxicity assay, H-460; type: cell-based; details: H-460, MTT, 72 h, read-out: Antiproliferative Activity IC50 ± SEM, H-460
[4] = tested on: pancreatic ductal cancer (Panc-1); assay: MTT cytotoxicity assay, Panc-1; type: cell-based; details: Panc-1, MTT, 72 h, read-out: Antiproliferative Activity IC50 ± SEM, Panc-1
EGFR = target: T1, EGFR (Homo sapiens, UniProt P00533); assay: EGFR kinase inhibition assay (EGFR Kinase Assay Kit); type: biochemical; details: triplicates; read-out: EGFR Inhibition IC50 ± SEM
T1 construct: purchased PBS Bioscience (so in the source)

human recombinant COX-2 = target: T2, human recombinant COX-2 (Homo sapiens, UniProt P35354); assay: Cyclooxygenase assay (PGE2 quantification), COX-2; type: biochemical; details: mean ± SD; n = 3
T2 construct: purchased Cayman Chemicals
T2 sequence (P35354 18-604): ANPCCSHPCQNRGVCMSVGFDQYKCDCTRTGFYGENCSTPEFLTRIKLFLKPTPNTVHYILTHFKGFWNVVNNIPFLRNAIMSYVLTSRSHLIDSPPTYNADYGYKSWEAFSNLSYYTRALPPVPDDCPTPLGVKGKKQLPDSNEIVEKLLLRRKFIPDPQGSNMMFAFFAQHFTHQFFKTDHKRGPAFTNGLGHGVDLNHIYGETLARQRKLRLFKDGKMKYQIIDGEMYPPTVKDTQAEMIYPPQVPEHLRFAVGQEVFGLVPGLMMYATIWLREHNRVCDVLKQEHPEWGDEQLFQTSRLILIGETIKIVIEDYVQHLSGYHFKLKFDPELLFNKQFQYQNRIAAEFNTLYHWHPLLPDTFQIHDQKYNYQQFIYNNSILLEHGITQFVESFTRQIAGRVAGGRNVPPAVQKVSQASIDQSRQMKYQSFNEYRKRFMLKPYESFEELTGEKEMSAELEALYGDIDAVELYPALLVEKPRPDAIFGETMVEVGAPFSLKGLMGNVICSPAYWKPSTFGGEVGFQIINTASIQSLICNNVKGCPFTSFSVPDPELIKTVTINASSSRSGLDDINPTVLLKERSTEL

IL-6 = assay: ELISA, LPS-induced IL-6 release in RAW264.7 macrophages; type: cell-based, mouse; details: for Relative Amount of LPS (IL-6): RAW 264.7, compound 10 µM, IL-6 relative to LPS control = 100
TNF-α = assay: ELISA, LPS-induced TNF-α release in RAW264.7 macrophages; type: cell-based, mouse; details: for Relative Amount of LPS (TNF-α): RAW 264.7, compound 10 µM, TNF-α relative to LPS control = 100
[5] = tested on: normal human fetal lung fibroblast cell line, MRC5; assay: Cell viability % (MTT, normal cell line); details: cell line and concentration not named in Table 1; supplement names MRC5 as normal cell line
Sheep-derived COX-1 = target: T3, Sheep-derived COX-1 (Ovis aries, UniProt P05979); assay: Cyclooxygenase assay (PGE2 quantification), COX-1
T3 sequence (P05979 25-600): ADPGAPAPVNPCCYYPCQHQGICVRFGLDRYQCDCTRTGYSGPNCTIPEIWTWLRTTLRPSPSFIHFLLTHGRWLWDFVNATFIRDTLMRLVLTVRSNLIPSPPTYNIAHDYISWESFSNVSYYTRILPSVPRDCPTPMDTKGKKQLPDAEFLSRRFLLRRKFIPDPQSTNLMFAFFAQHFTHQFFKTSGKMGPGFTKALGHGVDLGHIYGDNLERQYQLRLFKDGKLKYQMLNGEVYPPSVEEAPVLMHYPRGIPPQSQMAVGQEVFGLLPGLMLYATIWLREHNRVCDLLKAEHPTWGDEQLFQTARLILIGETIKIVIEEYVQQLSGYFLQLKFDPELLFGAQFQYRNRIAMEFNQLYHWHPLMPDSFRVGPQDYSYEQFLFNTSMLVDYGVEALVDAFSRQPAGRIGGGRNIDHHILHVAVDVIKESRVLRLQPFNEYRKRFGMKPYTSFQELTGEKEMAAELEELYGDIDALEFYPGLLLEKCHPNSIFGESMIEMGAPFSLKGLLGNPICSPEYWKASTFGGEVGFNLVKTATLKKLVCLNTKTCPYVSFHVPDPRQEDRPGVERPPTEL

[6] = target: T4, human recombinant sPLA2-V (Homo sapiens, UniProt P39877); assay: Secretory PLA2-V activity assay (Ellman's photometric method)
T4 sequence (P39877 21-138): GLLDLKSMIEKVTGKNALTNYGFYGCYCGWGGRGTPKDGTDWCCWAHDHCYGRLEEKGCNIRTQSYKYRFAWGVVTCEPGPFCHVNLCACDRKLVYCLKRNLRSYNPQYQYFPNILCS

[7] = Cell viability % (MTT, normal cell line); details: human, MRC5 normal fetal lung fibroblast cells
[8] = tested on: normal human fetal lung fibroblast cell line, MRC5
[9] = RAW 264.7, compound 10 µM for 2 h, then LPS 0.5 µg/mL for 22 h
[10] = read-out: COX-1 IC50, mean ± SD, n = 3
[11] = read-out: sPLA2-V IC50, mean ± SD, n = 3
[12] = Mus musculus, RAW264.7, RAW 264.7, compound 10 µM for 2 h, then LPS 0.5 µg/mL for 22 h

| Molecule | IC50 [1] [µM] | IC50 [2] [µM] | IC50 ([3]; 72 h) [µM] | IC50 (lung cancer (H-460)) [µM] | IC50 [4] [µM] | IC50 (EGFR) [µM] | IC50 (human recombinant COX-2) [µM] | % Inhibition of IL-6 (IL-6; [9]) [%] | Relative Amount of LPS (IL-6) (IL-6) | % Inhibition of TNF-α (TNF-α; [9]) [%] | Relative Amount of LPS (TNF-α) (TNF-α) | IC50 (Sheep-derived COX-1; [10]) [µM] | IC50 [6, 11] [µM] | also measured |
| --- | --- | --- | --- | --- | --- | --- | --- | --- | --- | --- | --- | --- | --- | --- |
| CN(C)c1ccc(/C=C/C(=O)c2ccc(/N=N/c3ccc(O)c(C(=O)O)c3)cc2)cc1 [Compound C15, 5. -((E)-(4-((E)-3-(4-(Dimethylamino)phenyl)acryloyl)phenyl)diazenyl)-2-hydroxy benzoic acid] | 1.6 ± 0.2 | 2.3 ± 0.4 | 3.4 ± 1.8 | 1.7 ± 0.2 | 1.9 ± 0.1 | 2.8 ± 0.5 | 0.95 ± 0.2 | 78 | 22 | 81 | 19 | 1.9 ± 0.23 | 2.01 ± 1.11 | Cell Viability % [5]: 87.3 ± 2.1% |
| CN(C)c1ccc(/C=C/C(=O)c2cccc(/N=N/c3ccc(O)c4ccccc34)c2)cc1 [Compound C16, (E)-3-(4-(Dimethylamino)phenyl)-1-(3-((E)-(4-hydroxynaphthalen-1-yl)diazenyl)phenyl) prop-2-en-1-one] |  | 1.9 ± 0.5 |  |  |  | 2.9 ± 0.4 | 6.89 ± 0.8 |  | 31 |  | 28 |  |  | IC50 ([1]; Homo sapiens): 1.8 ± 0.4 µM; IC50 ([3]; Homo sapiens, A-375, 72 h): 2.8 ± 1 µM; IC50 (lung cancer (H-460); Homo sapiens, NCI-H460): 2.9 ± 1 µM; IC50 ([4]; Homo sapiens): 1.8 ± 0.5 µM; inhibition at 10 µM (IL-6; [12]): 69%; inhibition at 10 µM (TNF-α; [12]): 72%; viability at 72 h [7]: 92.5 ± 2%; IC50 (Sheep-derived COX-1): 7.1 ± 1.29 µM; IC50 [6]: 2.51 ± 1.05 µM |
| (E)-3-(4-Fluorophenyl)-1-(4-((E)-(4-hydroxynaphthalen-1-yl)diazenyl)phenyl) prop-2-en-1-one [Compound C10] | 1.1 ± 0.2 | 0.9 ± 0.4 | 2.6 ± 1 | 1.2 ± 0.1 | 1.6 ± 0.5 | 1.1 | 1.88 ± 0.4 | 77 | 23 | 76 | 24 | 7.37 ± 1.44 | 3.14 ± 0.64 | Cell Viability % [8]: 91.2 ± 2.9% |

— article PMC8876975, “EGFR and COX-2 Dual Inhibitor: The Design, Synthesis, and Biological Evaluation of Novel Chalcones” (Molecules, 2022)
